This passage reports CC50 and EC50 results from patent publication US9884818B2, “Sulphamoylpyrrolamide derivatives and the use thereof as medicaments for the treatment of hepatitis B” (Janssen Sciences Ireland UC, priority 2013, dated 2018).

A short description of series [1]: Cytotoxicity in HepG2 cells, Resazurin viability assay. The conditions noted are these: human, HepG2 cells, HepG2 4 days CC50 (μM), incubated for 4 days, Resazurin assay.
In series [2] the test system is HBV. The experiment in a line: Anti-HBV activity, HepG2.117 inducibly HBV producing cell line (Tet-off), intracellular HBV DNA by realtime PCR. The conditions noted are these: Hepatitis B virus, HepG2.117, 72 h, HepG2.117 cells, 3 days of treatment, intracellular HBV DNA; read-out: HepG2 117 EC50. The series is classed as cell-based.
Series [3] relates to HBV. Description: Anti-HBV activity, HepG2.2.15 stable transfected cell line, HBV DNA from secreted virions by realtime PCR. The series is classed as cell-based. The conditions noted are these: Hepatitis B virus, HepG2.2.15, 144 h, HepG2.2.15 cells, 6 days of treatment, HBV DNA from secreted virions; read-out: HepG2 2.15 EC50.

A value given as a limit tells only on which side of the number the result lay.

For the compound `C[C@@H](NS(=O)(=O)c1cc(C(=O)Nc2cccc(C(F)(F)F)c2)n(C)c1)C(F)(F)F` [Compound 122, 1-methyl-4-[[(1R)-2,2,2-trifluoro-1-methyl-ethyl]sulfamoyl]-N-[3-(trifluoromethyl)phenyl]pyrrole-2-carboxamide], the CC50 at 4 days in series [1] is 13.1 µM. Besides, the EC50 in series [2] was over 1000 nM; in series [3], 70 nM.
Compound `C[C@@H](NS(=O)(=O)c1cc(C(=O)Nc2ccc(F)c(Cl)c2)n(C)c1)C(F)(F)F` [Compound 123, N-(3-Chloro-4-fluorophenyl)-1-methyl-4-{[(1R)-2,2,2-trifluoro-1-methylethyl]sulfamoyl}-1H-pyrrole-2-carboxamide] yielded a CC50 at 4 days in series [1] of over 25 µM. The EC50 in series [2] and in series [3] was 40 nM each time.
For the compound `C[C@@H](NS(=O)(=O)c1cc(C(=O)Nc2ccc(F)c(Br)c2)n(C)c1)C(F)(F)F` [Compound 124, N-(3-Bromo-4-fluorophenyl)-1-methyl-4-{[(1R)-2,2,2-trifluoro-1-methylethyl]sulfamoyl}-1H-pyrrole-2-carboxamide], the half-maximal cytotoxic concentration (CC50) at 4 days in series [1] is over 25 µM. Besides, the EC50 in series [2] and in series [3] was 40 nM each time.
In turn, `C[C@@H](NS(=O)(=O)c1cc(C(=O)Nc2ccc(F)c(C(F)(F)F)c2)n(C)c1)C(F)(F)F` [Compound 125, N-[4-Fluoro-3-(trifluoromethyl)phenyl]-1-methyl-4-{[(1R)-2,2,2-trifluoro-1-methylethyl]sulfamoyl}-1H-pyrrole-2-carboxamide] registered a 50% cytotoxic concentration (CC50) at 4 days in series [1] of 16.7 µM. The EC50 was determined as 80 nM in series [2] and 190 nM in series [3].
For `Cn1cc(S(=O)(=O)NCC(F)F)cc1C(=O)Nc1ccc(F)c(C#N)c1` [Compound 126, N-(3-Cyano-4-fluorophenyl)-4-[(2,2-difluoroethyl)sulfamoyl]-1-methyl-1H-pyrrole-2-carboxamide] the same measures were over 25 µM, 230 nM and 590 nM.
Consider `Cn1cc(S(=O)(=O)NCC(F)F)cc1C(=O)Nc1ccc(F)c(Br)c1` [Compound 127, N-(3-Bromo-4-fluorophenyl)-4-[(2,2-difluoroethyl)sulfamoyl]-1-methyl-1H-pyrrole-2-carboxamide], for which the CC50 at 4 days in series [1] was over 25 µM. Besides, the values for the EC50 in series [2] and in series [3] were 190 nM and 50 nM, respectively.
The corresponding values for `Cn1cc(S(=O)(=O)NCC(F)F)cc1C(=O)Nc1ccc(F)c(Cl)c1` [Compound 128, N-(3-Chloro-4-fluorophenyl)-4-[(2,2-difluoroethyl)sulfamoyl]-1-meth-1H-pyrrole-2-carboxamide] are over 25 µM, 90 nM and 150 nM.
For `Cn1cc(S(=O)(=O)NCC(F)F)cc1C(=O)Nc1ccc(F)c(F)c1` [Compound 129, 4-[(2,2-Difluoroethyl)sulfamoyl]-N-(3,4-difluorophenyl)-1-methyl-1H-pyrrole-2-carboxamide], the CC50 at 4 days in series [1] is over 25 µM. Also, the results for the half-maximal effective concentration (EC50) in series [2] and in series [3] were 80 nM and 170 nM, respectively.
In the case of `Cn1cc(S(=O)(=O)NCC(F)F)cc1C(=O)Nc1cc(F)c(F)c(Cl)c1` [Compound 130, N-(3-Chloro-4,5-difluorophenyl)-4-[(2,2-difluoroethyl)sulfamoyl]-1-methyl-1H-pyrrole-2-carboxamide], in series [1], the CC50 at 4 days was over 25 µM. The results for the EC50 in series [2] and in series [3] were 150 nM and 90 nM, respectively.
`Cn1cc(S(=O)(=O)NCC(F)(F)F)cc1C(=O)Nc1ccc(F)c(Cl)c1` [Compound 131, N-(3-Chloro-4-fluorophenyl)-1-methyl-4-[(2,2,2-trifluoroethyl)sulfamoyl]-1H-pyrrole-2-carboxamide]: the CC50 at 4 days in series [1] was over 25 µM. Further, the EC50 in series [2] and in series [3] was 10 nM each time.
`Cn1cc(S(=O)(=O)NCC(F)(F)F)cc1C(=O)Nc1ccc(F)c(F)c1` [Compound 132, N-(3,4-Difluorophenyl)-1-methyl-4-[(2,2,2-trifluoroethyl)sulfamoyl]-1H-pyrrole-2-carboxamide]: the CC50 at 4 days in series [1] was over 25 µM. For the same compound, the values for the EC50 in series [2] and in series [3] were 70 nM and 80 nM, respectively.
`Cn1cc(S(=O)(=O)NCC(F)(F)F)cc1C(=O)Nc1cc(F)c(F)c(Cl)c1` [Compound 133, N-(3-Chloro-4,5-difluorophenyl)-1-methyl-4-[(2,2,2-trifluoroethyl)sulfamoyl]-1H-pyrrole-2-carboxamide] returned a 50% cytotoxic concentration (CC50) at 4 days in series [1] of over 25 µM. Also, the EC50 turned out to be 80 nM in series [2] and 40 nM in series [3].
Compound `Cn1cc(S(=O)(=O)NCC(F)(F)F)cc1C(=O)Nc1ccc(F)c(C#N)c1` [Compound 134, N-(3-Cyano-4-fluorophenyl)-1-methyl-4-[(2,2,2-trifluoroethyl)sulfamoyl]-1H-pyrrole-2-carboxamide] came in with a CC50 at 4 days in series [1] of over 25 µM. The EC50 turned out to be 130 nM in series [2] and 180 nM in series [3].
For `Cn1cc(S(=O)(=O)NCC(F)(F)F)cc1C(=O)Nc1ccc(F)c(Br)c1` [Compound 135, N-(3-Bromo-4-fluorophenyl)-1-methyl-4-[(2,2,2-trifluoroethyl)sulfamoyl]-1H-pyrrole-2-carboxamide] the same measures were over 25 µM, 260 nM and 20 nM.
In series [1], `Cc1c(S(=O)(=O)NC2(C)COC2)cc(C(=O)Nc2cc(F)c(F)c(Cl)c2)n1C` [Compound 136, N-(3-Chloro-4,5-difluorophenyl)-1,5-dimethyl-4-[(3-methyloxetan-3-yl)sulfamoyl]-1H-pyrrole-2-carboxamide] gave a CC50 at 4 days of over 25 µM. Besides, the EC50 in series [2] and in series [3] was 60 nM throughout.
In series [1], `Cc1c(S(=O)(=O)N[C@H](C)C(F)(F)F)cc(C(=O)Nc2cc(F)c(F)c(Cl)c2)n1C` [Compound 137, N-(3-Chloro-4,5-difluorophenyl)-1,5-dimethyl-4-{[(1R)-2,2,2-trifluoro-1-methylethyl]sulfamoyl}-1H-pyrrole-2-carboxamide] had a CC50 at 4 days of 16.5 µM. For the same compound, the values for the EC50 in series [2] and in series [3] were 40 nM and 30 nM, respectively.
Turning to `Cc1c(S(=O)(=O)N[C@H](C)C(F)(F)F)cc(C(=O)Nc2ccc(F)c(Cl)c2)n1C` [Compound 138, N-(3-Chloro-4-fluorophenyl)-1,5-dimethyl-4-{[(1R)-2,2,2-trifluoro-1-methylethyl]sulfamoyl}-1H-pyrrole-2-carboxamide], the CC50 at 4 days in series [1] is over 25 µM. Further, the figures for the EC50 in series [2] and in series [3] were 30 nM and 100 nM, respectively.
In the case of `Cc1c(S(=O)(=O)N[C@H](C)C(F)(F)F)cc(C(=O)Nc2ccc(F)c(F)c2)n1C` [Compound 139, N-(3,4-Difluorophenyl)-1,5-dimethyl-4-{[(1R)-2,2,2-trifluoro-1-methylethyl]sulfamoyl}-1H-pyrrole-2-carboxamide], the CC50 at 4 days in series [1] was over 25 µM. For the same compound, the EC50 in series [2] turned out to be 30 nM; in series [3], 50 nM.
`Cc1c(S(=O)(=O)N[C@H](C)C(F)(F)F)cc(C(=O)Nc2ccc(F)c(C#N)c2)n1C` [Compound 140, N-(3-Cyano-4-fluorophenyl)-1,5-dimethyl-4-{[(1R)-2,2,2-trifluoro-1-methylethyl]sulfamoyl}-1H-pyrrole-2-carboxamide] returned a CC50 at 4 days in series [1] of over 25 µM. Further, the EC50 amounted to 60 nM in series [2] and 100 nM in series [3].
The compound `Cc1c(S(=O)(=O)N[C@H](C)C(F)(F)F)cc(C(=O)Nc2ccc(F)c(Br)c2)n1C` [Compound 141, N-(3-Bromo-4-fluorophenyl)-1,5-dimethyl-4-{[(1R)-2,2,2-trifluoro-1-methylethyl]sulfamoyl}-1H-pyrrole-2-carboxamide] yielded a CC50 at 4 days in series [1] of over 25 µM. Besides, the EC50 in series [2] turned out to be 150 nM; in series [3], 40 nM.
In the case of `Cc1c(S(=O)(=O)N[C@H](C)C(F)(F)F)cc(C(=O)Nc2ccc(F)c(C(F)(F)F)c2)n1C` [Compound 142, N-[4-Fluoro-3-(trifluoromethyl)phenyl]-1,5-dimethyl-4-{[(1R)-2,2,2-trifluoro-1-methylethyl]sulfamoyl}-1H-pyrrole-2-carboxamide], in series [1], the CC50 at 4 days is over 25 µM. The EC50 is 420 nM in series [2] and 150 nM in series [3].
Compound `Cc1c(S(=O)(=O)N[C@H](C)C(F)(F)F)cc(C(=O)Nc2ccc(F)c(Cl)c2F)n1C` [Compound 143, N-(3-Chloro-2,4-difluorophenyl)-1,5-dimethyl-4-{[(1R)-2,2,2-trifluoro-1-methylethyl]sulfamoyl}-1H-pyrrole-2-carboxamide] displayed a CC50 at 4 days in series [1] of over 25 µM. In addition, the results for the EC50 in series [2] and in series [3] were 150 nM and 50 nM, respectively.
The corresponding values for `Cc1c(S(=O)(=O)N[C@H](C)C(F)(F)F)cn(C)c1C(=O)Nc1ccc(F)c(F)c1` [Compound 144, N-(3,4-Difluorophenyl)-1,3-dimethyl-4-{[(1R)-2,2,2-trifluoro-1-methylethyl]sulfamoyl}-1H-pyrrole-2-carboxamide] are over 25 µM, 70 nM and 50 nM.
In turn, `Cc1c(S(=O)(=O)N[C@H](C)C(F)(F)F)cn(C)c1C(=O)Nc1ccc(F)c(Cl)c1` [Compound 145, N-(3-Chloro-4-fluorophenyl)-1,3-dimethyl-4-{[(1R)-2,2,2-trifluoro-1-methylethyl]sulfamoyl}-1H-pyrrole-2-carboxamide] returned a half-maximal cytotoxic concentration (CC50) at 4 days in series [1] of over 25 µM. In addition, the half-maximal effective concentration (EC50) in series [2] amounted to 30 nM; in series [3] it was 40 nM.
Take `Cc1c(S(=O)(=O)N[C@@H](C)C(F)(F)F)cn(C)c1C(=O)Nc1ccc(F)c(F)c1` [Compound 146, N-(3,4-Difluorophenyl)-1,3-dimethyl-4-{[(1S)-2,2,2-trifluoro-1-methylethyl]sulfamoyl}-1H-pyrrole-2-carboxamide]: the CC50 at 4 days in series [1] was over 25 µM. For the same compound, the values for the EC50 in series [2] and in series [3] were 40 nM and 70 nM, respectively.

By CC50 is commonly meant the concentration giving 50% cytotoxicity. Lower therefore signals greater toxicity to the cells. A word on the EC50: it is the concentration at which the effect is half-maximal.
